Calls of active or inactive are those of the source.
What was measured:
[1] = tested on: Streptococcus sp. 'group A'; experiment: growth inhibition of control SK(-) GAS strain, dose response, counter-screen for streptokinase expression inhibitor project, luminescence, kanamycin, BacTiterGlo, confirmation (AID 1900); format: functional, organism-based
Streptokinase A = biological target: T1, Streptokinase A (Streptococcus pyogenes serotype M1, UniProt P10520); experiment: S. pyogenes streptokinase expression inhibitors, potency, dose response, plasminogen activation absorbance, OD405 (AID 1914); format: functional, Streptococcus pyogenes M1 GAS;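 also: secreted streptokinase activity via plasminogen activation per viability signal from cell pellet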
T1 sequence (P10520 whole entry): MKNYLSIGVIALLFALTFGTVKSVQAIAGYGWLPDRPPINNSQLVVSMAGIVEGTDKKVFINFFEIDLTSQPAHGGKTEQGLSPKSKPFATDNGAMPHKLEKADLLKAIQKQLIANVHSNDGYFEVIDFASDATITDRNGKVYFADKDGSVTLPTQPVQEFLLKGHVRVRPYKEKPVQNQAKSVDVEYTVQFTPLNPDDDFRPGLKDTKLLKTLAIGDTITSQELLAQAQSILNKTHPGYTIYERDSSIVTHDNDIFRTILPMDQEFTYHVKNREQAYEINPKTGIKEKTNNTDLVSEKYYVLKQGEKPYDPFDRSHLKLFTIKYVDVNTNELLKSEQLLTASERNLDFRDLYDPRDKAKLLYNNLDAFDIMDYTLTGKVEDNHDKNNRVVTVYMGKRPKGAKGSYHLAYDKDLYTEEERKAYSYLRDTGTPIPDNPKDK

Streptococcus = experiment: Group A Streptococcus viability loss, dose response, counter-screen for streptokinase expression inhibitor project, luminescence, BacTiterGlo (AID 1915); format: functional, organism-based;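 also: potency for reduction of bacterial viability or growth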
[2] = biological target: Potassium voltage-gated channel subfamily KQT member 2 (Rattus norvegicus, UniProt O88943); experiment: KCNQ2 potassium channel inhibitors, dose response, cell-based, automated electrophysiology, set II, rat KCNQ2 (AID 588637); format: functional
Chain of Potassium voltage-gated channel subfamily KQT member 2 (O88943 whole entry): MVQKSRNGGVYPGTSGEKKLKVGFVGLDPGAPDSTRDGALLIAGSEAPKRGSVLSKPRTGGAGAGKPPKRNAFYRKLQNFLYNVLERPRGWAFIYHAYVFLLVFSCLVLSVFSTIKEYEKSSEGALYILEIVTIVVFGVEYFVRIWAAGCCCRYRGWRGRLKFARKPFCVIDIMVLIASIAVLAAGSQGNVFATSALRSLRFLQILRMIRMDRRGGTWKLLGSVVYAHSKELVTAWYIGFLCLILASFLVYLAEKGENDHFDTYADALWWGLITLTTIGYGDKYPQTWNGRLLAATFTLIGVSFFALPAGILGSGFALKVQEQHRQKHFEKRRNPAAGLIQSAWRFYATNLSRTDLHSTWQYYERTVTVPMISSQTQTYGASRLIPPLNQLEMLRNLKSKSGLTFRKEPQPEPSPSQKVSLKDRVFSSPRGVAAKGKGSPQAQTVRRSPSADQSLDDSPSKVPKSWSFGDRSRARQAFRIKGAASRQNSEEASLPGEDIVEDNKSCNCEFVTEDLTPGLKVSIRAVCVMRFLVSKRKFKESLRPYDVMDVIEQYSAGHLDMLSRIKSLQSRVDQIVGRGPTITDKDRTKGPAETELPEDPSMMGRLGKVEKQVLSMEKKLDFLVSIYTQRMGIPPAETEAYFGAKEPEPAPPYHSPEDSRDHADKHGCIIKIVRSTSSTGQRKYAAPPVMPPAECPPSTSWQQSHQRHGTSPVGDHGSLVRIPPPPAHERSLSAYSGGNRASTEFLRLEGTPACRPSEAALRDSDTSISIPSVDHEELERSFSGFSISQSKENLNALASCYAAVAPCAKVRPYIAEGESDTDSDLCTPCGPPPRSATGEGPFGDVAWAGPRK

[3] = NIH-3T3 fibroblast cytotoxicity, dose response, cytotoxicity control, cell-based, fluorescence, Alamar Blue, secondary assay (AID 2327); format: functional;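 also: NIH-3T3 mouse fibroblasts cultured with fluconazole at 8 µg/mL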
[4] = C. albicans growth with fluconazole, confirmation, fluorescence, retest (AID 2467); format: functional, cell-based
Cysteine protease ATG4B = biological target: T2, Cysteine protease ATG4B (Homo sapiens, UniProt Q9Y4P1); format: functional;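 also: Fluorescence-based dose-response confirmation assay measuring inhibition of ATG4B activity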
T2 sequence (Q9Y4P1 whole entry): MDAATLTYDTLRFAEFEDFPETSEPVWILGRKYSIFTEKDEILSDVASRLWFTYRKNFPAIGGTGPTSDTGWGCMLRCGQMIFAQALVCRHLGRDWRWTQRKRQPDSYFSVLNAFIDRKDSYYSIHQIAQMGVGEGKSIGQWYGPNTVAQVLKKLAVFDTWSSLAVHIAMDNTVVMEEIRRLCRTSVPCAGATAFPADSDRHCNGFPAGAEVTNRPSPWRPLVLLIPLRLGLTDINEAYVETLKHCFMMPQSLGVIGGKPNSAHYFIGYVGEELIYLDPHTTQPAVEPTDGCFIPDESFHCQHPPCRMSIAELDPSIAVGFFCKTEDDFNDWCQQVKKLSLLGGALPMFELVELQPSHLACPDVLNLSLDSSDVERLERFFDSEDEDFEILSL

Phospholipase A2 = Phospholipase A2 (Homo sapiens, UniProt P04054); format: functional;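 also: confirmatory dose-response counterscreen on phospholipase A2, testing hits that came from an ultra-high-throughput screen for ATG4B inhibitors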
Chain of Phospholipase A2 (P04054 whole entry): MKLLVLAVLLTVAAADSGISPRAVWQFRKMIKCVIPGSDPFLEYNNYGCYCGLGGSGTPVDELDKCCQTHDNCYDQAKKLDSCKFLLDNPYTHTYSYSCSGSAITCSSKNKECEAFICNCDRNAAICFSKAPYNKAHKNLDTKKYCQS

[5] = biological target: 26S proteasome non-ATPase regulatory subunit 14 (Homo sapiens, UniProt O00487); experiment: inhibition of proteasome subunit RPN11 – biochemical, fluorescence polarization, uHTS hits, confirmation (AID 602368); format: functional
Chain of 26S proteasome non-ATPase regulatory subunit 14 (O00487 whole entry): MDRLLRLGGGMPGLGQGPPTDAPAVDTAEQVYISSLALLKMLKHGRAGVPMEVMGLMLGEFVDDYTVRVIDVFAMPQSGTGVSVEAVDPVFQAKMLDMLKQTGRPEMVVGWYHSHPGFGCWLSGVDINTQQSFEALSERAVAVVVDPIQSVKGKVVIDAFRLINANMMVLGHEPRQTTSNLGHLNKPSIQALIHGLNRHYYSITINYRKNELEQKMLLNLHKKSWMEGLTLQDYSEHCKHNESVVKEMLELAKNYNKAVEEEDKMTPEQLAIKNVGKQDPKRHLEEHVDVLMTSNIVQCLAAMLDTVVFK

[6] = biological target: 72 kDa type IV collagenase (Homo sapiens, UniProt P08253); experiment: Dose Response validation of uHTS RPN11 inhibitor hits using a MMP-2 Fluorescence assay.; format: functional
Chain of 72 kDa type IV collagenase (P08253 whole entry): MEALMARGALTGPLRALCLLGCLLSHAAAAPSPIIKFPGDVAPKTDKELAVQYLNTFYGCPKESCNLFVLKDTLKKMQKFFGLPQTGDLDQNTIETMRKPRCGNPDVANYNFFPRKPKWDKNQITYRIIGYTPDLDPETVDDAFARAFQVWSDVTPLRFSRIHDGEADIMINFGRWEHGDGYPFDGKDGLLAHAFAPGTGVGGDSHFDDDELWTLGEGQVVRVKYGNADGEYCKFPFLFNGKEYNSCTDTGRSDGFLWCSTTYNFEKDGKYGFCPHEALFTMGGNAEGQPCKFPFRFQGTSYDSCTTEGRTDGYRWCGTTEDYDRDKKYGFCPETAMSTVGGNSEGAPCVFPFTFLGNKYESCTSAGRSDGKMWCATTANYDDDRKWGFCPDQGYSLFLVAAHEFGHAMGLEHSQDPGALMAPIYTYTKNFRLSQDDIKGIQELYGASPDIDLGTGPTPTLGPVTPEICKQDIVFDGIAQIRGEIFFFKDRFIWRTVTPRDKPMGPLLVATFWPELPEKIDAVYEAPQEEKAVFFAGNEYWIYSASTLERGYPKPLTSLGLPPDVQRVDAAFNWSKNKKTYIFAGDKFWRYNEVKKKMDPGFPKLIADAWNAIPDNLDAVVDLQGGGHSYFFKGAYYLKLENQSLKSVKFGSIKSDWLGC

Prothrombin = Prothrombin (Bos taurus, UniProt P00735); experiment: thrombin inhibition, dose response, biochemical, fluorescence polarization, uHTS hits (AID 602369); format: functional
[7] = HEp-2 cell cytotoxicity, dose response, cytotoxicity control for RSV inhibitor project, HTS (AID 2410); format: functional; settings: human respiratory syncytial virus
[8] = biological target: T3, Apoptotic protease-activating factor 1 (Homo sapiens, UniProt O14727); format: functional
T3 sequence (O14727 whole entry): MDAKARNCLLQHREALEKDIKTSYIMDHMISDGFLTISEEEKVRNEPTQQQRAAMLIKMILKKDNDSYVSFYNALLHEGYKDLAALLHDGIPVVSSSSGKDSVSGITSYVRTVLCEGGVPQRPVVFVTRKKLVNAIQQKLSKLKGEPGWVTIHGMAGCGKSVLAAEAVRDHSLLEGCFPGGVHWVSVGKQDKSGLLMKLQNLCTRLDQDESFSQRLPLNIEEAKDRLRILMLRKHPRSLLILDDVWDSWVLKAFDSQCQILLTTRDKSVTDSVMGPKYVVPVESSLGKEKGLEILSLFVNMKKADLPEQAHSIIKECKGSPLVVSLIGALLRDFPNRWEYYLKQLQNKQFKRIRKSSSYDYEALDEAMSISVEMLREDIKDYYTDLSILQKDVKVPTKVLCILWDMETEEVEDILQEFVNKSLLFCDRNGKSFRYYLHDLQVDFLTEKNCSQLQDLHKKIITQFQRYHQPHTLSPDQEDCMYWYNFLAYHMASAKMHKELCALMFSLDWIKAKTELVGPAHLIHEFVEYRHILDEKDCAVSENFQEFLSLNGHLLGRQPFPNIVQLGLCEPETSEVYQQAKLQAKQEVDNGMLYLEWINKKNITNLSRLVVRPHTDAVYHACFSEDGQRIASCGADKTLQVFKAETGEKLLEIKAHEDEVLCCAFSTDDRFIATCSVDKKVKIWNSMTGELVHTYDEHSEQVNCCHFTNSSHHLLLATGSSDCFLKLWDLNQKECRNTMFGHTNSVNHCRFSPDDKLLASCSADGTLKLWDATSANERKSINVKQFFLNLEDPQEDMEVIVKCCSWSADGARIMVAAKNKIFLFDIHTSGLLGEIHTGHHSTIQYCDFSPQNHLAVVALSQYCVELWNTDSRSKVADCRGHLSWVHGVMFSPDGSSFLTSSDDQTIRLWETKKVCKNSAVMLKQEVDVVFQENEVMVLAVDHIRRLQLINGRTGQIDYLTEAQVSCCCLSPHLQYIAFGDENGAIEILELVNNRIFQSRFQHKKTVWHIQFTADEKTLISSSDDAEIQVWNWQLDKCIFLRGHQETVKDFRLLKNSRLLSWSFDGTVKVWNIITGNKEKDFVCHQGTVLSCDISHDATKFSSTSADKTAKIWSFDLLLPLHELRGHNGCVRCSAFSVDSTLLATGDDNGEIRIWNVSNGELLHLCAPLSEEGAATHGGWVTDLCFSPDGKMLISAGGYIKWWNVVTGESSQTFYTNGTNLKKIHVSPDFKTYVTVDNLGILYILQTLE

Large T antigen = Large T antigen (Simian virus 40, UniProt P03070); format: functional, Betapolyomavirus macacae;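 also: Confirmatory-stage PubChem screen for compounds that inhibit SV40 T antigen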
Chain of Large T antigen (P03070 whole entry): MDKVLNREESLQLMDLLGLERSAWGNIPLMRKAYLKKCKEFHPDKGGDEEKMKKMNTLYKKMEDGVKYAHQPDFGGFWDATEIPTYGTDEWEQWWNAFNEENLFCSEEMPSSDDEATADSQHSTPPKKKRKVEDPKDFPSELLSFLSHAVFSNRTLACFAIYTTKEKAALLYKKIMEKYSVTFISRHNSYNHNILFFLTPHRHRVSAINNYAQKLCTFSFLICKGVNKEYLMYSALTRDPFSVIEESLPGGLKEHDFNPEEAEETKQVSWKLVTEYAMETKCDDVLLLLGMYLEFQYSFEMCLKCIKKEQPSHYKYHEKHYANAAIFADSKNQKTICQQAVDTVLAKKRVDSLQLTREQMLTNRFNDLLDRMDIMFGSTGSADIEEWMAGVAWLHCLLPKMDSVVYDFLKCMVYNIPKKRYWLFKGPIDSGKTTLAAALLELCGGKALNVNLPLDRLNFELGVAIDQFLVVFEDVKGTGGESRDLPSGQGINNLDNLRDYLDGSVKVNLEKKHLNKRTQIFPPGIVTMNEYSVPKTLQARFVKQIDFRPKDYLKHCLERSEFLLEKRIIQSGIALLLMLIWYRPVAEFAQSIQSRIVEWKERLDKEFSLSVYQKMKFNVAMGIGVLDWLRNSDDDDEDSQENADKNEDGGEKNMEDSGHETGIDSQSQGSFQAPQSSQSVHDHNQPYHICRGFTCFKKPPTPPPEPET

[9] = biological target: Tyrosine-protein phosphatase non-receptor type 11 (Homo sapiens, UniProt Q06124); experiment: SHP2 phosphatase inhibition, dose response, selectivity assay for STEP inhibitor project, biochemical (AID 602367); format: functional; settings: read-out: IC50_Mean
Chain of Tyrosine-protein phosphatase non-receptor type 11 (Q06124 whole entry): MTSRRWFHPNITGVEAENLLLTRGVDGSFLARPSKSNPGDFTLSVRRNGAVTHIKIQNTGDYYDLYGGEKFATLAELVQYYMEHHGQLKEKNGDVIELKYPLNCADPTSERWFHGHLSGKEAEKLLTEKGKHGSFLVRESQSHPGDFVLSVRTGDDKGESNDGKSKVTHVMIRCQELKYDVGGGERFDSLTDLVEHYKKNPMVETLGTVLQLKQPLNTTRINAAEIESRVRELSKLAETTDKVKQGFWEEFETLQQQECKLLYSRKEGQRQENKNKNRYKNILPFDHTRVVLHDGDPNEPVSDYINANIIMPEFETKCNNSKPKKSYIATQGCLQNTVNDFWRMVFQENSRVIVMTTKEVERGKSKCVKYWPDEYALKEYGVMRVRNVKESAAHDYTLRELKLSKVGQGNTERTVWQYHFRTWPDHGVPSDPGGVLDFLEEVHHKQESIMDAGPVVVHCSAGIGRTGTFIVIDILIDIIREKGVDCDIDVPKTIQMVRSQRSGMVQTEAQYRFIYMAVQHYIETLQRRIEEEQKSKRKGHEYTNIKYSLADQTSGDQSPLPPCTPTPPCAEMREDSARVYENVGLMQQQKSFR

[10] = biological target: Tyrosine-protein phosphatase non-receptor type 5 (Homo sapiens, UniProt P54829); experiment: STEP phosphatase inhibitors, confirmation, biochemical, fluorescence intensity, uHTS hits (AID 602372); format: functional; settings: read-out: IC50_Mean
Chain of Tyrosine-protein phosphatase non-receptor type 5 (P54829 whole entry): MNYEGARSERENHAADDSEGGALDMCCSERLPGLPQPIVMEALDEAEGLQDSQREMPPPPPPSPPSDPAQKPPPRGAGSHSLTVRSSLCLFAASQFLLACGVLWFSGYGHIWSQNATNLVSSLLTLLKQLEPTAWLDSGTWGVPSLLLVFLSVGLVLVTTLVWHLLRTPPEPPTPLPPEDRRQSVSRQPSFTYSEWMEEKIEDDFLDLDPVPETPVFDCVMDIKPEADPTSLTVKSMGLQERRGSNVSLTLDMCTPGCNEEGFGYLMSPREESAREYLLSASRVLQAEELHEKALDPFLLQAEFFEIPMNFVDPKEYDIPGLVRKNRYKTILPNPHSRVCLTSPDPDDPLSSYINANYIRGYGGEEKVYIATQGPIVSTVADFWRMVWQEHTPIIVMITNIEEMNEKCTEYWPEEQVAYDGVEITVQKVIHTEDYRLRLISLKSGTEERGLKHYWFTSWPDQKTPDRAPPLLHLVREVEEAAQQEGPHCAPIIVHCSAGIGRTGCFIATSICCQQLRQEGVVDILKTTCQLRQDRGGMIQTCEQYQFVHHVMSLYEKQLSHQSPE

[11] = biological target: Dual specificity protein phosphatase 3 (Homo sapiens, UniProt P51452); experiment: VHR phosphatase inhibition, dose response, selectivity assay for STEP inhibitor project, biochemical (AID 602374); format: functional; settings: read-out: IC50_Mean
Chain of Dual specificity protein phosphatase 3 (P51452 whole entry): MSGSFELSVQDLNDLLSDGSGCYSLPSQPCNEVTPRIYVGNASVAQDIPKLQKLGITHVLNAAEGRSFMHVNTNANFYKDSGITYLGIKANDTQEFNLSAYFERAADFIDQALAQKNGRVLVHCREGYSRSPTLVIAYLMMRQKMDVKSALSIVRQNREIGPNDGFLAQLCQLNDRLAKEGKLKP

Cytochrome P450 3A4 = Cytochrome P450 3A4 (Homo sapiens, UniProt P08684);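 also: CYP3A4 tested as one member of a cytochrome P450 panel screen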
Chain of Cytochrome P450 3A4 (P08684 whole entry): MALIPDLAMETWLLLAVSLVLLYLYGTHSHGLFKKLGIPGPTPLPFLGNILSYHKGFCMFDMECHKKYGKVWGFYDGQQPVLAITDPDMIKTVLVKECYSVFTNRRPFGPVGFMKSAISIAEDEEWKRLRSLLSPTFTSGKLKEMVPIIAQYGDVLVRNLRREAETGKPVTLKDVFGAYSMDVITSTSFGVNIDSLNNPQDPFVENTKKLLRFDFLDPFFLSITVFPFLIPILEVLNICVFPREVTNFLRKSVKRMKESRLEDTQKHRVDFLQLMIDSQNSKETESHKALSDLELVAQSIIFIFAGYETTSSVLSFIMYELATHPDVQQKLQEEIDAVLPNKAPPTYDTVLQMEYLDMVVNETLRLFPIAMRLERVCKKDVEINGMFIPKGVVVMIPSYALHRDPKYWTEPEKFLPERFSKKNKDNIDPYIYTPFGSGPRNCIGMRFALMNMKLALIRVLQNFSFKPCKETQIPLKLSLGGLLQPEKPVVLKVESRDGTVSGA

HEK293 = experiment: inhibitors of LMP1-driven NF-kB reporter, dose response, cell-based, HEK293, luciferase, cherry-pick (AID 588343); format: functional; settings: Homo sapiens
[12] = biological target: T4, Latent membrane protein 1 (Human herpesvirus 4 (strain B95-8), UniProt P03230); experiment: TES1-eGFP NF-kB reporter inhibition versus Tet-On dsRED, dose response, selectivity assay for LMP1 NF-kB inhibitor project, imaging, HEK293T, dual-color eGFP/dsRED, cherry-picks (AID 588398); format: functional, cell-based
T4 sequence (P03230 whole entry): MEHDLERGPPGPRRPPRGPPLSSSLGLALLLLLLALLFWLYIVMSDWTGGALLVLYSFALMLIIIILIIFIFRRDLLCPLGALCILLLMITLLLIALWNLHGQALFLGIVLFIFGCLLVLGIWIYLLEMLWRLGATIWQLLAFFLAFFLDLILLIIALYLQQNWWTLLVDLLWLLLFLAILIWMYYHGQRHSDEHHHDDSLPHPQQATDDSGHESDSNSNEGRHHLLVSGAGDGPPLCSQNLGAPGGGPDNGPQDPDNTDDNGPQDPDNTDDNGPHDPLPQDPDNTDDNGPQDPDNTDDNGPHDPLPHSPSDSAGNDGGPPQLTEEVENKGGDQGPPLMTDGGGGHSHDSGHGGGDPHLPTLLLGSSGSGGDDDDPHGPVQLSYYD

[13] = biological target: T5, Corticotropin-releasing factor receptor 2/Corticotropin-releasing factor-binding protein (Homo sapiens, UniProt P24387+Q13324); experiment: Dose Response confirmation of uHTS hits for small molecule antagonists of the CRF-binding protein and CRF-R2 receptor complex.; format: functional; settings: read-out: IC50_Mean
T5 sequence (Q13324 whole entry): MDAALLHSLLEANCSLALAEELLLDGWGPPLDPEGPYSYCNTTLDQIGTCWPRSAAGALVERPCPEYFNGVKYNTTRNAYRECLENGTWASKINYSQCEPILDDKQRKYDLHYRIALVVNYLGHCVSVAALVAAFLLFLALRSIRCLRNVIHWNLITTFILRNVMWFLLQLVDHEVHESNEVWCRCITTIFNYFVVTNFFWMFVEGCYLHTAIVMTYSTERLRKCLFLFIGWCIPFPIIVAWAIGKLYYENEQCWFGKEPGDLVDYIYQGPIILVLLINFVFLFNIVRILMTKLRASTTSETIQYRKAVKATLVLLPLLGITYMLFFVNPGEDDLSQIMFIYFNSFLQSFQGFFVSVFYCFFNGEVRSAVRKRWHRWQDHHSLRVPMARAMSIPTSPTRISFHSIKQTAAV
T5 sequence (P24387 whole entry): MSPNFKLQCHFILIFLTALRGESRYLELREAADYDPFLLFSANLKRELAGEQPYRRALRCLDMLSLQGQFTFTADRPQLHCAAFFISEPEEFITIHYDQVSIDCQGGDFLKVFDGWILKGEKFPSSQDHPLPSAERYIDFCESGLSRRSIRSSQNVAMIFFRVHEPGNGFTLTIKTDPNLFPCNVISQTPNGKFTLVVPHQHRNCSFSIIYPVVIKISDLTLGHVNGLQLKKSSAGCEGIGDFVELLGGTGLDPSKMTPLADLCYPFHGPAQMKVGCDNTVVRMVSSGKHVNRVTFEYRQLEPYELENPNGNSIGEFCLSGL

[14] = biological target: T5, Corticotropin-releasing factor receptor 2/Corticotropin-releasing factor-binding protein; experiment: activators of CRF receptor 2 with binding protein – uHTS hits, confirmation (AID 602473); format: functional; settings: read-out: EC50_Mean
[15] = CRF-BP/CRF-R2 complex antagonists, dose response, cell-based, uHTS hits, 384-well (AID 651639); format: functional, Homo sapiens; settings: read-out: IC50_Mean
[16] = Luminescence Cell-Based Dose Response HTS to Identify Inhibitors of 5'UTR Stem-Loop Driven Prion Protein mRNA Translation in H4 Neuroglioblastoma Cells. [Related pubchem assays: 1827 (Project Summary), 1813 (Primary HTS)]; format: functional
[17] = inhibitors of SNCA 5'UTR-driven reporter translation, confirmation, H4 neuroglioma cells, luminescence (AID 1988); format: functional, cell-based

Structure (SMILES): C/C(=N\Nc1nc(N2CCCCCC2)nc(N2CCCCCC2)n1)c1ccccc1
- EC50 [1]: 7.16 µM (active)
- EC50 (Streptokinase A): 5.5 µM (active)
- EC50 (Streptococcus): 9.52 µM (active)
- IC50 [2]: 1.62 µM (active)

Structure (SMILES): COc1cc(OC)cc(-c2nnc(Nc3nc4c(F)cccc4s3)o2)c1
- EC50 [3]: > 150 µM (inconclusive)
- EC50 [4]: > 38 µM (not active)
- IC50 (Cysteine protease ATG4B): 5.68 µM (active)
- IC50 (Phospholipase A2): > 80 µM (inactive)
- IC50 [5]: 30.1 µM (active)
- IC50 [6]: > 100 µM (inactive)
- IC50 (Prothrombin): 62.8 µM (active)

Structure (SMILES): COc1ccc(-n2nc3ccc(N)cc3n2)cc1Cl
- CC50 [7]: 47.1 µM (active)
- IC50 [8]: > 100 µM (inactive)

Structure (SMILES): COc1ccc(CCN(C)C(=O)c2cc(-c3ccc(C)cc3)nc3ccccc23)cc1OC
- IC50 [2]: 0.59 µM (active)

Structure (SMILES): CCOc1cc(/C=C2\NC(=S)N(c3c(C)n(C)n(-c4ccccc4)c3=O)C2=O)ccc1O
- IC50 (Large T antigen): 5.37 µM (active)
- IC50 [5]: 27.9 µM (active)
- IC50 [6]: 9.31 µM (active)
- IC50 (Prothrombin): 39.7 µM (active)

Structure (SMILES): CCN1CCN(C(=S)c2ccc(Br)cc2)CC1
- IC50 [9]: 1.88 µM (active)
- IC50 [10]: 39.4 µM (inactive)
- IC50 [11]: 0.942 µM (active)
- AC50 (Cytochrome P450 3A4): 17.8 µM (inconclusive)

Structure (SMILES): CC(=NNC(=S)N1CCCC1)c1ccccn1
- AC50 (HEK293): 0.0151 µM (active)
- AC50 [12]: 0.444 µM (active)

Structure (SMILES): O=C(Nc1cc(Cl)cc(Cl)c1)c1coc(=O)c(Br)c1
- IC50 [13]: 8.37 µM (active)
- EC50 [14]: 15.1 µM (active)
- IC50 [15]: > 20 µM (inactive)

Structure (SMILES): COc1cc(NC(=S)N2CCN(C)CC2)c(OC)cc1Cl
- IC50 [9]: 7.71 µM (active)
- IC50 [10]: > 80 µM (inactive)
- IC50 [11]: 4 µM (active)

Structure (SMILES): Cc1ccc(NC(=O)c2ccc3c(c2)OCCO3)nc1
- EC50 [16]: 11.3 µM (active)
- EC50 [17]: 8.65 µM (inconclusive)
- AC50 (HEK293): 2.56 µM (active)
- AC50 [12]: 186 µM (active)

Structure (SMILES): O=C(CCNS(=O)(=O)c1ccccc1)NCCSc1ccc(Br)cc1
- IC50 [8]: > 100 µM (inactive)
